Results published in US8367727B2, “Method of using abscisic acid to treat diseases and disorders” (priority 2006, dated 2013).

Tests used:
[1] = tested on: dextran sodium sulfate (DSS)-induced colitis; test: DSS-induced colitis in C57BL/6J mice: disease activity, macroscopic scores, histopathology; assay type: in vivo
Description: Six to eight week old C57BL/6J mice (n=20) and were housed at the animal facilities at Virginia Polytechnic Institute and State University in a room maintained at 75° F., with a 12:12 h light-dark cycle starting from 6:00 AM. All experimental procedures were approved by the Institutional Animal Care and Use Committee of Virginia Polytechnic Institute and State University and met or exceeded requirements of the Public Health Service/National Institutes of Health and the Animal Welfare Act. C57BL/6J mice were fed AIN-93G-based diets with or without 100 mg/kg of a racemic ABA mixture for 35 days prior to induction of colitis with water containing 2.5% dextran sodium sulfate (DSS), […] (ICN Biomedicals, Aurora, Ohio). After the DSS challenge mice were weighed on a daily basis and examined for clinical signs of disease associated with colitis (i.e., perianal soiling, rectal bleeding, diarrhea, and piloerection). For the DSS challenge, the disease activity indices and rectal bleeding scores were calculated using a modification of a previously published compounded clinical score (50). Briefly, the disease activity index consisted of a scoring for diarrhea and lethargy (0-3), whereas rectal bleeding consisted of a visual observation of blood in feces and the perianal area (0-4). Mice in the DSS study were euthanized on day 7 of the DSS challenge. On day 7 blood mice were euthanized by CO2 asphyxiation and blood was withdrawn from the heart. Spleen and mesenteric lymph nodes (MLN) were scored based on size and macroscopic inflammatory lesions (0-3), excised, and then crushed to produce single-cell suspensions for flow cytometry.
Colonic sections were fixed in 10% buffered neutral formalin, later embedded in paraffin, and then sectioned (5 μm) and stained with H&E stain for histologic examination. Colons were graded with a compounded histologic score including the extent of (1) lymphocyte infiltration, (2) mucosal thickening, and (3) epithelial cell erosion. The sections were graded with a score of 0-4 for each of the previous categories and data were analyzed as a normalized compounded score.

CD4+ T cells = test: CFSE flow cytometry proliferation assay, Concanavalin A-stimulated splenocytes, CD4+ T cells; assay type: cell-based, mice; conditions: 100 mg ABA/kg diet; first 2 generations
Description: Single cell suspensions were prepared from the spleen by gently crushing the spleens excised during the necropsy procedure between the frosted ends of microscope glass slides previously autoclaved. Tissue debris were removed by settling, erythrocytes were eliminated by hypotonic lysis and cells finally resuspended in complete RPMI (cRPMI, 10% fetal bovine serum (Hyclone, Logan, Utah), 25 mM HEPES buffer (Sigma, St. Louis, Mo.), 100 units/ml penicillin (Sigma), […] streptomycin (Sigma), 1 mM sodium pyruvate (Sigma), 1 mM nonessential aminoacids (Sigma), and 2 mM essential amino acids (Mediatech), and enumerated with a Coulter Z1 Single Particle Counter (Beckman Coulter, Miami, Fla.). […]
Splenocytes at 10^6 cells/ml were seeded in 96-well, round-bottom microtiter plates and incubated incomplete RPMI with or without Concanavalin A (Sigma) at 2.5 μg/ml. […] Following 2 washes in Fluorescence activated cell sorting (FACS) buffer, cells were incubated with streptavidin-PeCy5 (Pharmingen, San Diego, Calif.) for the biotinylated anti-mouse CD4 antibody. Cells were analyzed by 3-color flow cytometry (CFSE, phycoerythrin and PeCy5) in a FACScalibur instrument (Becton Dickinson). Ten thousand events were acquired, and data were analyzed using the Cell Quest Pro™ software (Becton Dickinson). Proliferation was assessed by the decrease in fluorescent intensity of CFSE staining. […]

MCP-1, PPAR γ, CD36 = test: Real-time qRT-PCR of stromal-vascular cells (SVCs), adipocytes and liver, db/db mice; assay type: in vivo
Description: Complementary DNA (cDNA) concentrations for genes of interest were examined by real-time quantitative PCR using an iCycler IQ System and the iQ SYBR green supermix (BioRad). A standard curve was generated for each gene using 10-fold dilutions of purified amplicons starting at 5 pg of cDNA and used later to calculate the starting amount of target cDNA in the unknown samples. SYBR green I is a general double-stranded DNA intercalating dye and may therefore detect nonspecific products and primer/dimers in addition to the amplicon of interest. In order to determine the number of products synthesized during the real-time PCR, a melting curve analysis was performed on each product. Real-time PCR was used to measure the starting amount of nucleic acid of each unknown sample of cDNA on the same 96-well plate. Results are presented as starting quantity of target cDNA (picograms) per microgram of total RNA.

SMILES: CC1=CC(=O)CC(C)(C)C1(O)/C=C/C(C)=C\C(=O)O (racemic) [ABA, abscisic acid]
- disease activity index (DAI) ([1]; 100 mg/kg diet 35 days, then 7 days 2.5% DSS): significantly reduced disease activity index
- body weight loss ([1]; DSS challenge, ABA vs control): no significant differences in body weight loss
- Epithelial erosion ([1]; colon histology, DSS colitis): significantly reduced
- leukocyte infiltration ([1]; colon histology, DSS colitis): significantly reduced
- mucosal thickening ([1]; colon histology, DSS colitis): significantly reduced
- colonic inflammation, macroscopic score ([1]; day 7 of DSS): significantly reduced colonic inflammation
- spleen or MLN macroscopic score ([1]; day 7 of DSS): no significant effect on the spleen or MLN
- CD4+ T cells RPI1 (CD4+ T cells): 17.72
- MCP-1 mRNA in the adipocyte fraction (MCP-1, PPAR γ, CD36; P=0.05): significant reduction
- CD36 expression (MCP-1, PPAR γ, CD36; SVCs and adipocytes): only significantly elevated in SVCs
- PPAR γ mRNA expression (MCP-1, PPAR γ, CD36; SVCs and adipocytes): higher in both SVCs and adipocytes
- mRNA expression of MIP-1α or TLR-4 (MCP-1, PPAR γ, CD36; SVCs or adipocytes): did not see significant differences
- decrease of MCP-1 mRNA in SVCs (MCP-1, PPAR γ, CD36; db/db mice, 100 mg/kg diet, 36 days): ~15 fold
